Tests used:
[1] = species on record: Mus musculus; test: animal or person; settings: SHR, iv
Description: Analgesic activity in iv dosed SHR mouse by writhing assay

[2] = system: Mus musculus; test: Analgesic activity in iv dosed DBA mouse by tail clip assay; assay type: functional
[3] = species on record: Mus musculus; test: animal or person; settings: DBA, iv
Description: Analgesic activity in iv dosed DBA mouse by writhing assay

[4] = species on record: Mus musculus; test: animal or person; settings: DBA, iv; remark: listed apart in the source
Description: Analgesic activity in iv dosed DBA mouse by hot plate assay

[5] = species on record: Mus musculus; test: animal or person; settings: SHR, iv; remark: listed apart in the source
Description: Analgesic activity in iv dosed SHR mouse by hot plate assay

[6] = species on record: Mus musculus; test: animal or person; settings: DBA, Tail, iv
Description: Analgesic activity in iv dosed DBA mouse by tail flick assay

[7] = species on record: Mus musculus; test: animal or person; settings: SHR, Tail, iv
Description: Analgesic activity in iv dosed SHR mouse by tail flick assay

[8] = species on record: Mus musculus; test: animal or person; settings: SHR, iv; remark: listed apart in the source
Description: Analgesic activity in iv dosed SHR mouse by tail clip assay

CO[C@@]12CC[C@@]3(C[C@@H]1[C@](C)(O)C(C)(C)C)[C@H]1Cc4ccc(O)c5c4[C@@]3(CCN1CC1CC1)[C@H]2O5 [BUPRENORPHINE]
ED50 [1]: 0.0223 mg/kg
Efficacy [2]: 46.7%
ED50 [3]: 0.0295 mg/kg
ED50 [4]: 0.195 mg/kg
ED50 [5]: 0.0233 mg/kg
ED50 [6]: 0.312 mg/kg
ED50 [7]: 0.0404 mg/kg
ED50 [8]: 0.0466 mg/kg

Source: ChEMBL document CHEMBL1138911 (Bioorg Med Chem Lett, 2006)
